Test results: PubChem BioAssay (NCI)
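Briefly, cells in 96-well plates were exposed to five compound concentrations for 48 h, and endpoints were estimated by linear interpolation. TGI: concentration producing complete growth inhibition.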 Where a SMILES comes first, the peptide text is derived from it. The star is where a group is joined. Fmoc = O=C(OCC1c2ccccc2-c2ccccc21)*; OtBu = CC(C)(C)O*

Assays:
Experiment in all cases: NCI anticancer screen, dose series, 48 h
[1] = tested on: RPMI-8226 leukemia
[2] = tested on: NCI-H460 lung
[3] = tested on: SNB-19 CNS
[4] = tested on: T-47D breast
[5] = tested on: HOP-92 NSCLC
[6] = tested on: HCT-116 colon
[7] = tested on: SF-295 CNS
[8] = tested on: HCC-2998 colon
[9] = tested on: OVCAR-8 ovarian
[10] = tested on: TK-10 renal
[11] = tested on: EKVX NSCLC
[12] = tested on: SK-MEL-5 melanoma
[13] = tested on: SF-539 CNS
[14] = tested on: NCI-H226 lung
[15] = tested on: MDA-MB-231 breast
[16] = tested on: MOLT-4 leukemia

Structure (SMILES)	TGI [1]	TGI [2]	TGI [3]	TGI [4]	TGI [5]	TGI [6]	TGI [7]	TGI [8]	TGI [9]	TGI [10]	TGI [11]	TGI [12]	TGI [13]	TGI [14]	TGI [15]	TGI [16]
CC(=O)O[C@@H]1C[C@]2(C(=O)c3ccccc3)C(=O)C(=O)S[C@]12c1ccccc1	99.4 µM	> 100 µM	> 100 µM	94.3 µM	> 100 µM	> 100 µM	> 100 µM	75.1 µM	> 100 µM	> 100 µM	> 100 µM	> 100 µM	60.4 µM	> 100 µM	> 100 µM	> 100 µM
CC(C)C(NC(=O)OCC1c2ccccc2-c2ccccc21)C(=O)NC(CCC(=O)OC(C)(C)C)C(=O)OC(C)(C)C (stereo not given) (Fmoc-Val-Glu(OtBu)-OtBu; configuration not given here)	> 100 µM	> 100 µM	> 100 µM	> 72.7 µM	> 100 µM	> 100 µM	> 89.1 µM	> 100 µM	> 100 µM	> 100 µM	> 100 µM	> 100 µM	> 92 µM	> 100 µM	> 100 µM	> 100 µM
CCOC(=O)Cc1csc(NC(NC(=O)OCC)(C(=O)OCC)C(F)(F)F)n1 (stereo not given)	> 100 µM	> 100 µM	> 100 µM	> 100 µM	> 100 µM	> 100 µM	> 100 µM	> 100 µM	> 100 µM	> 100 µM	> 100 µM	> 100 µM	> 100 µM	> 100 µM	> 100 µM	> 100 µM
CN(C)C(C1=C(O)C(c2ccccc2)N(c2ccccc2)C1=O)N1CCOCC1 (stereo not given)	> 10 µM	> 10 µM	> 10 µM	> 10 µM	> 10 µM	> 10 µM	> 10 µM	> 10 µM	> 10 µM	> 10 µM	> 10 µM	> 10 µM	> 10 µM	> 10 µM	> 10 µM	> 10 µM
CCN1CCC(O)(c2ccc(Oc3ccc(Cl)cc3)cc2)C(C(=O)c2ccc(Oc3ccc(Cl)cc3)cc2)C1 (stereo not given)	10.9 µM	14.9 µM	29.3 µM	36.6 µM	24.8 µM	12.6 µM	27.4 µM	25 µM	38.6 µM	23 µM	34.5 µM	24.7 µM	30.3 µM	34.5 µM	29.4 µM	43.9 µM
